Results on one compound are retold here after patent US20060292158A1, “Method for the treatment of cancer using a novel pharmaceutical composition containing at least one dolastatin 10 derivative” (priority 2004, published 2006).

Data set [1] concerns NCI-H460 human large cell lung carcinoma xenograft. The data set is described as follows: Antitumor activity in NCI-H460 subcutaneous xenograft in athymic nude mice, combination with cisplatin (Example 4). In kind it is in vivo. The conditions noted are these: day 12. The protocol:
The NCI-H460 human large cell lung carcinoma cell line was purchased from American Type Culture Collection (MD, U.S.A.). The cells were cultured in RPMI-1640 medium (cat. # R8758, lot 12K2310, exp 01/03; lot 82K2497, exp 08/03; Sigma-Aldrich corporation, MO, U.S.A.) supplemented with 10% (v/v) fetal bovine serum (cat. # 047115, lot # 31300124; Roche Diagnostics KK, Tokyo, Japan).
Sixty of 5-week-old male athymic nude mice (BALB/c nu/nu) were purchased from Charles River Japan, Inc. (Yokohama, Japan). All mice were kept for 8 days in the animal facility of Kamakura Research Laboratories of Chugai Pharmaceutical Co., Ltd. before subjection to the experiment.
The title compound was synthesized at Kamakura Research Laboratories of Chugai Pharmaceutical Co., Ltd. CDDP (Randa™, lot # 924150) was obtained from Nippon Kayaku Co., Ltd. (Tokyo, Japan). The title compound was dissolved in dimethyl sulfoxide (DMSO) and diluted into 2.5 % DMSO solution with saline (for Injection; Ohtsuka Pharmaceutical Industry Co., Ltd., Tokushima, Japan) at the date of administration. CDDP was diluted with saline at the date of administration.
The in vivo evaluation procedure for anticancer drugs was based on the methods described by Plowman, et al. (1997) for xenograft models. See, “Anticancer Drug Development Guide: Preclinical Screening, Clinical Trials, and Approval, Teicher B (ed) pp. 101-125, specifically Chap. 6, “Human Tumor Xenograft Models in NCI Drug Development”, hereby incorporated by reference. A single cell suspension of NCI-H460 (5.6×10^6 cells per mouse) was inoculated subcutaneously into the right flank of each mouse. The tumor volume was estimated by using the equation ab^2/2, where a and b represent tumor length and width, respectively. Mice bearing tumors of between 150 and 245 mm^3 were selected on day 7 after tumor inoculation and were randomly divided into 8 groups, consisting of 5 mice each. Mean tumor volume and body weight of the selected mice were 187 mm3 and 24.3 g, respectively. Drug administration was initiated after mice were divided into groups. The title compound (2 mg/kg or 3 mg/kg), CDDP (5 mg/kg or 6.7 mg/kg) and each vehicle were administered intravenously. Tumor volume and body weight of each mouse were measured twice a week. […] Tumor growth inhibition was calculated using the equation (1-ΔT/ΔC)×100, where ΔT represents the difference in tumor volume from the initial treatment date of the treated group and ΔC represents the difference in tumor volume from the initial treatment date of the vehicle group.

In data set [2] the test system is KPL-4 human breast carcinoma xenograft. The data set is described as follows: Antitumor activity in KPL-4 orthotopic xenograft in athymic nude mice, combination with trastuzumab (Example 1). It counts as in vivo. Conditions: monotherapy 3, 4 or 6 mg/kg; one week after final injection; control 2.5% DMSO-saline plus 20 mg/kg human IgG. As for the experimental part: The KPL-4 human breast carcinoma cell line was kindly donated by Prof. Kurebayashi, Kawasaki Medical Center. The cells were cultured in Dulbecco's MEM (Sigma Chemical Co.) supplemented with 5% (v/v) fetal bovine serum (Roche Diagnostics).
One hundred forty (140) 5-week-old female athymic nude mice (BALB/c nu/nu) were purchased from Charles River Japan, Inc. (Yokohama, Japan). The mice were housed in an air-conditioned room (temperature 22±2° C., relative humidity 55±10%) under 12 h light/dark cycles. The mice were given sterilized CE-2 and tap water with 25μg/mL gentamycin ad libitum. […]
The in vivo evaluation procedure for anticancer drugs was based on the methods described by Plowman, et al. (1997) for xenograft models. […] The tumor volume and body weight of each mouse were measured twice a week. […] One week after the final injection, tumor growth inhibition (TGI) was calculated using the formula (1-T/C)×100 (%), where T (treated group) and C (control group) represent the mean tumor volume change. ED50 values were calculated from values of tumor growth inhibition on day 21 using the XL fit program. […]
Packaged software (SAS preclinical package version 5.0,SAS Institute Japan, Ltd.) was used for the statistical analysis. […] ED50s were calculated from values of tumor growth inhibition percentage using XL fit program #509 (MS Excel Add […], ID Business Solutions Ltd.)
(Xenograft models place foreign cells or tissue in a host animal.)

Data set [3] in a line: Maximum tolerated dose (neither lethality nor more than 20% body weight loss) in mice. The conditions noted are these: BALB/c nu/nu (athymic nude), mouse, in vivo, dose with neither lethality nor more than 20% body weight loss. An excerpt: The in vivo evaluation procedure for anticancer drugs was based on the methods described by Plowman, et al. (1997) for xenograft models. See, “Anticancer Drug Development Guide: Preclinical Screening, Clinical Trials, and Approval, Teicher B (ed) pp. 101-125, specifically Chap. 6, “Human Tumor Xenograft Models in NCI Drug Development”, hereby incorporated by reference.
See, “Anticancer Drug Development Guide: Preclinical Screening, Clinical Trials, and Approval, Teicher B (ed) pp. 101-125, specifically Chap. 6, “Human Tumor Xenograft Models in NCI Drug Development”, hereby incorporated by reference.
The in vivo evaluation procedure for anticancer drugs was based on the methods described by Plowman, et al. (1997) for xenograft models. See, “Anticancer Drug Development Guide: Preclinical Screening, Clinical Trials, and Approval, Teicher B (ed) pp. 101-125, specifically Chap.

As to `CC[C@H](C)[C@@H]([C@@H](CC(=O)N1CCC[C@H]1[C@H](SC)[C@@H](C)C(=O)N(C)CCc1cccc(O)c1)OC)N(C)C(=O)[C@@H](NC(=O)[C@H](C(C)C)N(C)C)C(C)C` [compound of formula (I-A), N-[1-({1-sec-Butyl-4-[2-(2-{[2-(3-hydroxy-phenyl)-ethyl]-methyl-carbamoyl}-1-methylsulfanyl-propyl)-pyrrolidin-1-yl]-2-methoxy-4-oxo-butyl}-methyl-carbamoyl)-2-methyl-propyl]-2-dimethylamino-3-methyl-butyramide], the “reduction of tumor growth” value worked out at 45% in data set [1] (2 mg/kg (1/3 MTD) i.v. weekly x3) and 93% in data set [1] (3 mg/kg (1/2 MTD) i.v. weekly x3). For the same compound, the “volume of tumor in comparison with control” value in data set [2] is recorded as “decreased significantly”. The compound also showed an MTD in data set [3] of 6 mg/kg.

As usually defined, the MTD is the largest dose that counted as tolerated. A lower MTD goes with poorer tolerability.
